Patent US20250295628A1 (priority 2022, published 2025)
Marks after values point to notes of the source that are not given here.

Columns and labels:
[1] = test system: rabbit VX2 liver tumor animal model; assay: Cisplatin plus composition 3-preparation in rabbit VX2 liver tumor model (Example 34); format: in vivo, New Zealand rabbits; conditions: cisplatin 4 mg/kg once a week alone, 4 weeks
Method: SPF grade New Zealand rabbits, 4-8 weeks old, 1.8-2.2 kg, with a standard diet and free access to water, were kept in an environment of 12-hour light/dark cycle with a constant temperature of (23±2° C.) and a humidity of (55±15%). The animals were anesthetized, guided by ultrasound, and VX2 hepatoma cells were introduced into the liver by minimally invasive approach, After monitoring New Zealand rabbits for 14 days, and tumor size was monitored with ultrasound; rabbits were randomly divided into 4 groups of 10 animals in each group according to tumor size and body weight, and drug treatment was started on day 15. Rabbits in the control group were intravenously injected with 0.9% sodium chloride injection through the ear vein. […] All New Zealand rabbits were treated for 4 weeks.
Tumor volume was estimated using the formula V=π(a×b^2)/6, where a and b were the longest and shortest diameters of the tumor measured using calipers. The weights of rabbits were monitored every 3-4 days during the experiment, and rabbited were sacrificed at the end of treatment; blood was collected, AST, ALT and CREA were tested, and the results are shown in Table 30. After anesthetizing each rabbit with Sutai 50+ tachypnosis 0.1 ml/kg, carotid artery phlebotomy was used as a termination procedure.

[2] = test system: arsenic poisoning model rats; assay: Therapeutic effect on arsenic poisoning in Wistar rats (Example 23); format: in vivo; conditions: EDTA 93.5 mg/kg
Method: 60 Wistar rats with a body weight of 180˜200 g were taken; rats in a blank group freely drank deionized water for 3 months; rats in arsenic poisoning groups freely drank an aqueous solution containing 100 mg/L·As2O3 for continuous 3 months, with a water mount of 20 ml per day, equivalent to an oral dose of 10 mg/kg, resulting in arsenic poisoning of drinking water-type in rats.
After successful molding, rats were divided to 10 rats in blank group and the remaining 50 rats. All groups were administrated once a day for 5 days/week for a total of 4 weeks. Rats in the blank group and the model group were administered by intravenous drip with normal saline, and rats in the treating group were administered with a normal saline solution of the corresponding drug; all groups had the same administration volume, a drip rate of 30 drops/min, and an dripping time of about 1 h, 1 time/d, 5 d/week, for a total of four weeks.
Urine was collected on day 1 and day 26, arsenic excretion was measured; blood and kidney of rats were taken 24 hours after the 26th day of administration, and blood arsenic concentrations and renal arsenic concentrations were detected with ICPMS; the results are shown in Table 18.

[3] = test system: mixed chromium, cobalt, nickel and manganese poisoning model rabbits; assay: Therapeutic effect on mixed poisoning of chromium, cobalt, nickel and manganese in rabbits (Example 26); format: in vivo, New Zealand rabbits; conditions: EDTA 93.5 mg/kg, 3 days of treatment
Method: 40 New Zealand rabbits with a weight of 1.5˜2.0 kg were taken, and normal saline was injected intravenously at the ear margin of rabbits of the blank group for 5 days. A mixed solution containing 5 mg/ml CrCl3, 3 mg/ml CoCl2, 1 mg/ml NiCl2 and 2 mg/ml MnCl2 was injected intravenously at the ear margin of rabbits of poisoning groups with a dose of 2 ml/kg for 5 days, and observed for 25 days, thus resulting in mixed poisoning models of chromium, cobalt, nickel and manganese in New Zealand rabbits.
After successful molding, there were 8 rabbits in the blank group and 24 rabbits in mixed poisoning groups. Rabbits in all groups were given once daily for 3 days. Rabbits in the blank group and the model group were administered by intravenous dripping with normal saline, and rabbits in the treating groups were administered with a normal saline solution containing the corresponding drug. The administration volume of all groups was the same, with a dripping rate of 30 drops/min, an administration time of about 2 h, 1 time/day for 3 days; the grouping and administration dose of New Zealand rabbit in different groups were shown in Table 21. 24-hour urine was collected every day for a total of 3 days, and the total amounts of chromium, cobalt, nickel and manganese excreted through urine during the 3 days were calculated, as shown in Table 22.

[4] = test system: lead poisoning model rats; assay: Therapeutic effect on lead poisoning in SD rats (Example 22); format: in vivo; conditions: EDTA 93.5 mg/kg, 4 weeks
Method: 30 SD rats with a body weight of 180˜200 g were taken; rats in the blank group freely drank deionized water containing 12.5 μL acetic acid for 3 weeks.
Rats in all groups were administrated once a day for 5 days/week for a total of 4 weeks. Rats in the blank group and model group were administered by intravenous drip with normal saline, and rats in treating groups were administered with normal saline solution of the corresponding drug; the administration volume of all groups was the same, with a dripping rate of 30 drops/min for a time of about 1 h, 1 time/day, 5 days/week; the grouping and administration dose of rats are shown in Table 14.

[5] = test system: thallium poisoning model rats; assay: Therapeutic effect on thallium poisoning in Wistar rats (Example 24); format: in vivo; conditions: EDTA 93.5 mg/kg, 4 weeks
Method: After successful molding, rats were divided to 10 rats in the blank group and the remaining 50 rats, and the grouping and administration dose are shown in Table 19. Rats in all groups were administrated once a day for 5 days/week for a total of 4 weeks.
Rats were sacrificed 24 h after administration on the last day; blood, kidney, brain and liver were taken, and thallium contents in these organs were detected by ICP-MS, and the test results are shown in Table 20.

`N.N.[Cl][Pt][Cl]` [Cisplatin, cisplatin] showed an ALT [1] of 86.68 ± 26.88 U/L, an AST [1] of 89.20 ± 13.66 U/L and a CREA [1] of 470.35 ± 85.57 µmol/L.
In the case of `O=C(O)CN(CCN(CC(=O)O)CC(=O)O)CC(=O)O` [EDTA, ethylenediaminetetraacetate], the “Total arsenic in urine on day 1” value [2] is reported as 3.27 ± 1.84 µg, the “Total arsenic in urine on day 26” value [2] is reported as 3.18 ± 1.35 µg and the Arsenic in blood ([2]; 24 hours after the 26th day) is reported as 1362.98 ± 319.58 µg/L. The Arsenic in kidney ([2]; 24 hours after the 26th day) was 6.08 ± 2.35 µg/g, the “Chromium in urine, total excreted in 3 days” value [3] was 178.48 ± 42.69 µg and the “Cobalt in urine, total excreted in 3 days” value [3] was 162.28 ± 44.97 ^ μg. The “Manganese in urine, total excreted in 3 days” value [3] was 169.52 ± 32.63 ^ μg, the “Nickel in urine, total excreted in 3 days” value [3] was 188.28 ± 63.17 ^ μg and the “Blood concentration of Ca2+” value [4] was 89.31 ± 5.28 µg/g. The “Blood concentration of Cu2+” value [4] was 754.21 ± 70.59 µg/g, the “Blood concentration of Fe3+” value [4] was 194.72 ± 19.29 µg/g and the “Blood concentration of Mg2+” value [4] was 43.61 ± 3.32 µg/g. The “Blood concentration of Zn2+” value [4] was 2942.15 ± 176.08*^ΔΔ μg/g, the Lead in blood [4] was 1218.69 ± 129.33 µg/L and the Lead in kidney [4] was 16.54 ± 4.67 ^ μg/g. For the same compound, the Lead in liver [4] was 0.47 ± 0.28 µg/g, the Thallium in blood [5] was 836.69 ± 168.83 µg/L and the Thallium in kidney [5] was 12.54 ± 4.48 µg/g. For the same compound, the Thallium in liver [5] was 4.27 ± 2.18 µg/g.
